The text below walks through data of PubChem BioAssay AID588630 (NMMLSC, 2011).

pEC50: −log10 of the molar value. Several values for one entry are separate records, joined by “and”; a condition that tells them apart may be missing. Identical values can stand only once. Activity calls are given as the source filed them.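 How the source made its calls: active means fitted potency at or below 10 µM with a response change of at least 30% across doses and an acceptable curve fit; inactive means the rest.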

In one assay the target is GTPase HRas (Homo sapiens) (UniProt P01112). Put plainly: blockers of fluorescent GTP loading onto wildtype HRas – biochemical, GST-H-Ras beads, Bodipy-FL-GTP, flow cytometry, multiplex, round 2, SAR follow-up (AID 588630). Particulars: Bodipy-FL-GTP binding.
GTPase HRas (Homo sapiens), sequence (P01112 whole entry, looked up): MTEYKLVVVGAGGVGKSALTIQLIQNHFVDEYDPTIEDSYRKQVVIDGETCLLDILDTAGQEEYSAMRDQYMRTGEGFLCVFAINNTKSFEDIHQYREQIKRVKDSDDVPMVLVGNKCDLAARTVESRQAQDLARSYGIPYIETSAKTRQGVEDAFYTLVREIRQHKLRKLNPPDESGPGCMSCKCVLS
Regarding `CC1(C)Cc2c(sc(NC(=S)NC(=O)c3ccc(F)cc3)c2C(=O)O)CO1`, the pEC50 was 7.01.

Regarding `Cc1cccc(C(=O)NC(=S)Nc2sc3c(c2C(=O)O)CC(C)(C)OC3)c1`, the pEC50 is 5.86.

With `CC1Cc2c(sc(NC(=S)NC(=O)c3ccccc3)c2C(=O)O)CO1` (centres undefined), the pEC50 was 6.70.

`CC1(C)Cc2c(sc(NC(=S)NC(=O)c3ccc(Br)cc3)c2C(=O)O)CO1`: the pEC50 was 6.22.

With `CC1(C)CCc2sc(NC(=S)NC(=O)c3ccccc3)c(C(=O)O)c2C1`, the pEC50 was 7.37.

Turning to `CC1(C)Cc2c(sc(NC(=S)NC(=O)c3ccco3)c2C(=O)O)CO1`, the pEC50 is 7.10.

On to `CC1(C)Cc2c(sc(NC(=O)NC(=O)c3ccccc3)c2C(=O)O)CO1`, for which the pEC50 was 6.14.

For `CC1(C)Cc2c(sc(NC(=S)NC(=O)c3ccccc3F)c2C(=O)O)CO1`, the pEC50 is 6.44.

With `COc1cccc(C(=O)NC(=S)Nc2sc3c(c2C(=O)O)CC(C)(C)OC3)c1`, the pEC50 was 6.56.

Take `COc1ccccc1C(=O)NC(=S)Nc1sc2c(c1C(=O)O)CC(C)(C)OC2`: the pEC50 is 5.88.

As for `CC1(C)Cc2c(sc(NC(=S)NC(=O)c3ccccc3Br)c2C(=O)O)CO1`, the pEC50 is 5.75.

`Cc1ccccc1C(=O)NC(=S)Nc1sc2c(c1C(=O)O)CC(C)(C)OC2`: the pEC50 was 6.35.

Turning to `Cc1ccc(C(=O)NC(=S)Nc2sc3c(c2C(=O)O)CC(C)(C)OC3)cc1`, the pEC50 is 6.71.

Turning to `CC1(C)Cc2c(sc(NC(=S)NC(=O)C3CCCCC3)c2C(=O)O)CO1`, the pEC50 is 6.20.

In the case of `CC(C)(C)C1Cc2c(sc(NC(=S)NC(=O)c3ccccc3)c2C(=O)O)CO1` (centres undefined), the pEC50 was 6.85.

As for `CC1(C)Cc2c(sc(NC(=S)NC(=O)c3cccc(F)c3)c2C(=O)O)CO1`, the pEC50 was 6.36.

Regarding `CC1(C)Cc2c(sc(NC(=S)NC(=O)c3cccs3)c2C(=O)O)CO1`, the pEC50 is 7.46.

Regarding `CCC1(C)Cc2c(sc(NC(=S)NC(=O)c3ccccc3)c2C(=O)O)CO1` (centres undefined), the pEC50 is 7.43.

In the case of `O=C(NC(=S)Nc1sc2c(c1C(=O)O)CC1(CCCC1)OC2)c1ccccc1`, the pEC50 is 7.51.

Regarding `COc1ccc(C(=O)NC(=S)Nc2sc3c(c2C(=O)O)CC(C)(C)OC3)cc1`, the pEC50 is 6.60.

Turning to `CC1(C)Cc2c(sc(NC(=S)NC(=O)c3ccccc3)c2C(=O)O)CO1`, the pEC50 is 7.70.

Turning to `O=C(NC(=S)Nc1sc2c(c1C(=O)O)CCOC2)c1ccccc1`, the pEC50 was 6.97 and 6.62.

The assay is the same for the next values; noted with them: at 100 µM (top of the series).
On to `CC1(C)Cc2c(sc(NC(=S)Nc3ccccc3)c2C(=O)O)CO1`, for which the “% response (remaining GTP binding)” value was “inactive”.

Consider `CC1(C)Cc2c(sc(NC(=S)NC(=O)c3cccc(Br)c3)c2C(=O)O)CO1`, for which the “% response (remaining GTP binding)” value was “inactive”.
